Results: US11981630B1, “Abietane type diterpene compound, preparation method and application thereof” (Hangzhou Normal University, priority 2022, dated 2024)
Several values for one entry are separate records, joined by “and”; a condition that tells them apart may be missing. Equal entries are not always repeated. Where two headings read alike, the source gives them in different places.

How the values were obtained:
[1] = system: human lung cancer cell A549; assay: in vitro tumor cell proliferation inhibition assay (MTT), A549; assay type: cell-based; conditions: for absorbance at 570 nm, Average: average of 3 wells; for absorbance at 570 nm, Average / Survival / absorbance at 570 nm (single well, S/N 1-3): parallel tests I-III; for absorbance at 570 nm (single well, S/N 1-3): MTT
Procedure: (§1) The abietane type diterpene compound Leucosceptrum A prepared in Embodiment 2 is tested for its anti-tumor ability, with a process as follows: in vitro tumor cell proliferation inhibition assay: exponential phase tumor cells are taken and the cell suspension concentration is adjusted (50,000-100,000 cells/mL), then the cell suspension is inoculated in 96-well plate with 100 microlitres (u L) per well (M L/well), followed by drug administration (100 μL/well) 24 h after inoculation; a blank control group, a cell control group and 6 drug groups with concentrations (3.12, 6.25, 12.5, 25, 50, 100 micromoles per litre (u mol/L)) are set up respectively, and the drug in the cell control group is cisplatin; after continuous cultivation for 72 […]

[2] = system: human promyelocytic leukemia cell HL-60; assay: in vitro tumor cell proliferation inhibition assay (MTT), HL-60; assay type: cell-based; conditions: for absorbance at 570 nm, Average: average of 3 wells; for absorbance at 570 nm, Average / Survival / absorbance at 570 nm (single well, S/N 1-3): parallel tests I-III; for absorbance at 570 nm (single well, S/N 1-3): MTT
Procedure: as §1

mouse liver cancer cells = conditions: MTT assay, reported in CN101633660A; cited from earlier work
mouse sarcoma cells = conditions: MTT assay, reported in CN101633660A; cited from earlier work
[3] = A549, 72 h, mean ± spread of parallel tests, unit inferred, read-out: IC50 according to the above data (three parallel tests)
[4] = A549, 72 h, one value per parallel test I, II, III, unit not given (concentrations in μmol/L), read-out: IC50 according to Graphpad Prism 6.0 (single parallel test)
[5] = HL-60, 72 h, mean ± spread of parallel tests, unit inferred, read-out: IC50 obtained according to the above data (three parallel tests)
[6] = HL-60, 72 h, one value per parallel test I, II, III, unit not given (concentrations in μmol/L), read-out: IC50 according to Graphpad Prism 6.0 (single parallel test)

Compound | absorbance at 570 nm, Average ([1]; A549, 3.12 μmol/L, 72 h) | Survival ([1]; A549, 3.12 μmol/L, 72 h) | absorbance at 570 nm, Average ([1]; A549, 6.25 μmol/L, 72 h) | Survival ([1]; A549, 6.25 μmol/L, 72 h) | absorbance at 570 nm, Average ([1]; A549, 12.5 μmol/L, 72 h) | Survival ([1]; A549, 12.5 μmol/L, 72 h) | Survival ([1]; A549, 25 μmol/L, 72 h) | absorbance at 570 nm, Average ([1]; A549, 50 μmol/L, 72 h) | Survival ([1]; A549, 50 μmol/L, 72 h) | absorbance at 570 nm, Average ([1]; A549, 100 μmol/L, 72 h) | Survival ([1]; A549, 100 μmol/L, 72 h) | IC50 [1, 3] | IC50 [1, 4] | absorbance at 570 nm, Average ([2]; HL-60, 3.12 μmol/L, 72 h) | Survival ([2]; HL-60, 3.12 μmol/L, 72 h) | absorbance at 570 nm, Average ([2]; HL-60, 6.25 μmol/L, 72 h) | Survival ([2]; HL-60, 6.25 μmol/L, 72 h) | absorbance at 570 nm, Average ([2]; HL-60, 12.5 μmol/L, 72 h) | Survival ([2]; HL-60, 12.5 μmol/L, 72 h) | Survival ([2]; HL-60, 25 μmol/L, 72 h) | also measured
N.N.[Cl][Pt][Cl] [Cisplatin, cisplatin, reference compound] | 0.666 and 0.6207 and 0.678 | 97.75% and 98.46% and 96.86% | 0.442 and 0.4673 and 0.4623 | 64.82% and 74.09% and 66.03% | 0.2543 and 0.2593 and 0.265 | 37.24% and 41.02% and 37.88% | 35.18% and 37.36% and 35.35% | 0.2027 and 0.2047 and 0.2257 | 29.64% and 32.33% and 32.21% | 0.1913 and 0.189 and 0.2023 | 27.98% and 29.84% and 28.87% | 16 ± 1.69 µM | 14.6 µM and 17.9 µM and 15.4 µM | 0.6123 and 0.433 and 0.4877 | 96.57% and 87.56% and 92.66% | 0.416 and 0.3023 and 0.4303 | 65.51% and 61.20% and 81.78% | 0.312 and 0.2347 and 0.231 | 49.05% and 47.55% and 43.96% | 43.57% and 22.80% and 31.06% | absorbance at 570 nm (single well, S/N 1-3) ([2]; HL-60, 12.5 μmol/L, 72 h): 0.346 and 0.244 and 0.185 and 0.299 and 0.22 and 0.197 and 0.201 and 0.295; absorbance at 570 nm, Average ([2]; HL-60, 50 μmol/L, 72 h): 0.11 and 0.076 and 0.0597; Survival ([2]; HL-60, 50 μmol/L, 72 h): 17.09% and 15.53% and 11.45%; absorbance at 570 nm, Average ([2]; HL-60, 100 μmol/L, 72 h): 0.0213 and 0.0253 and 0.017; Survival ([2]; HL-60, 100 μmol/L, 72 h): 3.06% and 5.31% and 3.35%; IC50 [2, 5]: 12.7 ± 1.87 µM; IC50 [2, 6]: 14.4 µM and 10.7 µM and 13.2 µM
C=C(C)c1cc(O)c2c(c1O)C(=O)CC1C(C)(C)CCCC21C (stereo not drawn) [Leucosceptrum A, 11,14-dihydroxy-8,11,13,15-abietatetraen-7-one] | 0.815 and 0.7807 and 0.813 | 98.11% and 95.42% and 95.31% | 0.7823 and 0.7553 and 0.7943 | 94.17% and 92.31% and 93.11% | 0.6333 and 0.6687 and 0.59 | 76.22% and 81.68% and 69.13% | 21.90% and 23.22% and 22.81% | 0.0813 and 0.07 and 0.0793 | 9.68% and 8.76% and 9.19% | 0.0767 and 0.0657 and 0.069 | 9.12% and 7.73% and 7.98% | 17.5 ± 0.88 µM | 17.6 µM and 18.4 µM and 16.6 µM | 0.4477 and 0.4213 and 0.3807 | 82.21% and 78.96% and 66.67% | 0.3683 and 0.3987 and 0.364 | 67.61% and 74.70% and 63.73% | 0.221 and 0.1817 and 0.281 | 40.49% and 33.94% and 49.09% | 16.13% and 10.64% and 11.79% | absorbance at 570 nm (single well, S/N 1-3) ([1]; A549, 6.25 μmol/L, 72 h): 0.828 and 0.791 and 0.728 and 0.711 and 0.786 and 0.769 and 0.822 and 0.77; absorbance at 570 nm, Average ([1]; A549, 25 μmol/L, 72 h): 0.1827 and 0.192 and 0.1953; absorbance at 570 nm (single well, S/N 1-3) ([1]; A549, 50 μmol/L, 72 h): 0.085 and 0.074 and 0.077 and 0.059 and 0.071 and 0.079 and 0.088; absorbance at 570 nm (single well, S/N 1-3) ([1]; A549, 100 μmol/L, 72 h): 0.078 and 0.067 and 0.085 and 0.073 and 0.066 and 0.058; IC50 ([1]; A-549 cells, 72 h, read-out: 72-hour IC50): 17.5 ± 0.88 µM; absorbance at 570 nm, Average ([2]; HL-60, 25 μmol/L, 72 h): 0.0887 and 0.0577 and 0.069; absorbance at 570 nm (single well, S/N 1-3) ([2]; HL-60, 50 μmol/L, 72 h): 0.049 and 0.054 and 0.053 and 0.048 and 0.045 and 0.037 and 0.038; absorbance at 570 nm, Average ([2]; HL-60, 50 μmol/L, 72 h): 0.052 and 0.0433 and 0.048; Survival ([2]; HL-60, 50 μmol/L, 72 h): 9.39% and 7.95% and 8.00%; absorbance at 570 nm, Average ([2]; HL-60, 100 μmol/L, 72 h): 0.0303 and 0.032 and 0.039; Survival ([2]; HL-60, 100 μmol/L, 72 h): 5.40% and 5.82% and 6.41%; IC50 [2, 5]: 9.06 ± 0.59 µM; IC50 [2, 6]: 9.58 µM and 9.19 µM and 8.42 µM; IC50 ([2]; HL-60 cells, 72 h, read-out: 72-hour IC50): 9.06 ± 0.59 µM
lushanrubescensin D | – | – | – | – | – | – | – | – | – | – | – | – | – | – | – | – | – | – | – | – | inhibitory effect on mouse liver cancer cells (mouse liver cancer cells): significant inhibitory effect; inhibitory effect on mouse sarcoma cells (mouse sarcoma cells): significant inhibitory effect
